Test results reported in ChEMBL document CHEMBL1201862, “PubChem BioAssay data set” (2004).
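Test compounds were applied to cells in 96-well plates for 48 hours at 5 doses. GI50: concentration for 50% inhibition of growth.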 Calls of active or inactive are those of the source. No stated cut-off is given here; in the data, active = GI50 up to about 1.1 µM and inactive = higher.

Tests used:
Test in all cases: NCI tumour cell line growth inhibition, 48 h
[1] = tested on: DLD-1
[2] = tested on: DMS-114
[3] = tested on: DMS-273
[4] = tested on: HOP-18
[5] = tested on: KM-20L2
[6] = tested on: M19-MEL
[7] = tested on: SNB-78
[8] = tested on: LXFL 529
[9] = tested on: RXF 631

SMILES	GI50 [1]	GI50 [2]	GI50 [3]	GI50 [4]	GI50 [5]	GI50 [6]	GI50 [7]	GI50 [8]	GI50 [9]
CN1CCN(c2ccc3[nH]c(-c4ccc5[nH]c(-c6ccc(O)cc6)nc5c4)nc3c2)CC1	178 µM (inactive)	38.5 µM (inactive)	21.6 µM (inactive)	209 µM (inactive)	158 µM (inactive)	18.1 µM (inactive)	265 µM (inactive)	–	–
Cc1c(CNc2ccc(Cl)c(C(=O)NC(CC(=O)O)C(=O)O)c2)ccc2nc(N)nc(N)c12 (centres undefined)	0.0631 µM (active)	0.038 µM (active)	0.0617 µM (active)	> 54.8 µM (inactive)	0.665 µM (active)	13.7 µM (inactive)	> 100 µM (inactive)	–	–
CC(C)S(=O)(=O)ON1C(=O)c2ccc(N(C)C)cc2C1=O	–	–	19.8 µM (inactive)	13.5 µM (inactive)	20.4 µM (inactive)	–	31.3 µM (inactive)	9.91 µM (inactive)	13.2 µM (inactive)
C=C1C(=O)OC2C1CCC(C)C1C=CC(=O)C12C (centres undefined)	1.89 µM (inactive)	–	4.08 µM (inactive)	6.65 µM (inactive)	3.61 µM (inactive)	3.36 µM (inactive)	3.14 µM (inactive)	1.58 µM (inactive)	–
CCOC(=O)C(/C(=N\NC(=O)OC)C(=O)Nc1cc(OC)ccc1OC)c1cnc2ccccc2n1 (centres undefined)	> 100 µM (inactive)	> 100 µM (inactive)	–	85.9 µM (inactive)	–	> 100 µM (inactive)	> 100 µM (inactive)	> 100 µM (inactive)	–
CCCCCCCCCOC(=S)NC	16.6 µM (inactive)	–	18.3 µM (inactive)	19.6 µM (inactive)	18 µM (inactive)	23.4 µM (inactive)	–	17.8 µM (inactive)	21 µM (inactive)
NNC(=O)CCC(=O)Nc1ccc(Cl)cc1Cl	> 100 µM (inactive)	> 100 µM (inactive)	31.8 µM (inactive)	–	> 100 µM (inactive)	> 100 µM (inactive)	> 100 µM (inactive)	29.7 µM (inactive)	> 100 µM (inactive)
O=[N+]([O-])c1cccc(/C=N\NS(=O)(=O)c2ccc(Cl)cc2)c1O	55.5 µM (inactive)	–	> 100 µM (inactive)	37.1 µM (inactive)	> 100 µM (inactive)	> 100 µM (inactive)	> 100 µM (inactive)	83.6 µM (inactive)	> 100 µM (inactive)
O=C(c1ccccc1)[C@H]1Nc2cnccc2C2c3ccccc3CC21 (some centres undefined)	7.01 µM (inactive)	10 µM (inactive)	26.6 µM (inactive)	5.6 µM (inactive)	21.2 µM (inactive)	8.3 µM (inactive)	15.5 µM (inactive)	4.38 µM (inactive)	19.9 µM (inactive)
COC(=O)N/N=C/c1oc(-c2cccc([N+](=O)[O-])c2)c(-c2cccc([N+](=O)[O-])c2)c1[N+](=O)[O-]	> 100 µM (inactive)	–	> 100 µM (inactive)	> 100 µM (inactive)	> 100 µM (inactive)	> 100 µM (inactive)	–	> 100 µM (inactive)	–
CN1C(c2ccccc2)CC(C)(O)CC1c1ccccc1 (centres undefined)	> 100 µM (inactive)	> 100 µM (inactive)	> 100 µM (inactive)	–	> 100 µM (inactive)	> 100 µM (inactive)	> 100 µM (inactive)	> 100 µM (inactive)	> 100 µM (inactive)
CC(=O)OC(OC(C)=O)c1ncccc1C(=O)OC(C)C	31.2 µM (inactive)	> 100 µM (inactive)	31.3 µM (inactive)	> 100 µM (inactive)	39.6 µM (inactive)	30.1 µM (inactive)	> 100 µM (inactive)	78.5 µM (inactive)	–
CN(C)C1=NC2=S(SC(Nc3ccccc3)=N2)S1 (centres undefined)	27.2 µM (inactive)	3.47 µM (inactive)	14.8 µM (inactive)	25 µM (inactive)	32.9 µM (inactive)	30 µM (inactive)	34.4 µM (inactive)	10 µM (inactive)	> 100 µM (inactive)
O=C(Nc1cc(Cl)ccc1Cl)c1cc2cccc(Br)c2oc1=O	> 100 µM (inactive)	> 100 µM (inactive)	> 100 µM (inactive)	> 100 µM (inactive)	> 100 µM (inactive)	> 100 µM (inactive)	–	–	–
CCCCCC(=O)OC[n+]1ccc2c(C)c3[nH]c4ccc(OC)cc4c3c(C)c2c1	0.137 µM (active)	0.628 µM (active)	0.0341 µM (active)	–	> 100 µM (inactive)	–	0.449 µM (active)	0.366 µM (active)	0.429 µM (active)
CCN(CC)CC(=O)NC1c2ccccc2Oc2ccccc21	> 100 µM (inactive)	> 100 µM (inactive)	> 100 µM (inactive)	–	> 100 µM (inactive)	> 100 µM (inactive)	> 100 µM (inactive)	> 100 µM (inactive)	–
N#CCCN(c1ccc(/C=C2\N=C(Cc3ccccc3)OC2=O)cc1)S(=O)(=O)c1ccccc1	> 100 µM (inactive)	> 100 µM (inactive)	> 100 µM (inactive)	–	> 100 µM (inactive)	–	> 100 µM (inactive)	> 100 µM (inactive)	–
CC(=O)NC(CCCCN(Cc1ccccc1)C(=O)N(CCCl)N=O)C(=O)NCc1ccccc1 (centres undefined)	> 47.9 µM (inactive)	> 100 µM (inactive)	> 35.8 µM (inactive)	25.9 µM (inactive)	> 52.8 µM (inactive)	> 67.3 µM (inactive)	> 100 µM (inactive)	> 100 µM (inactive)	–
C/C(=N\N(C)C)c1sc(-n2nc(-c3ccccc3)cc2-c2ccccc2)nc1C	> 100 µM (inactive)	72.6 µM (inactive)	> 100 µM (inactive)	> 100 µM (inactive)	> 100 µM (inactive)	> 100 µM (inactive)	> 100 µM (inactive)	> 100 µM (inactive)	43.9 µM (inactive)
COc1ccc(-n2/c(=N/C(=S)N(C)C)ss/c2=N\C(=S)N(C)C)cc1	–	7.36 µM (inactive)	10.7 µM (inactive)	–	27.7 µM (inactive)	7.43 µM (inactive)	39.4 µM (inactive)	–	–
